In US20250073358A1, “AROMATIC VINYL COMPOUND, METAL COMPLEX THEREOF, AND PREPARATION METHOD THEREFOR AND USE THEREOF” (SHANGHAI MAXINOVEL PHARMACEUTICALS CO., LTD., priority 2021, published 2025):

The molecules below were run against PD-1/PD-L1 (Homo sapiens (Human), UniProt Q9NZQ7) (assay: Homogenouse Time-Resolved Fluorescence (HTRF) binding assay, PD-1/PD-L1).
Sequence of PD-1/PD-L1 (Q9NZQ7 19-238): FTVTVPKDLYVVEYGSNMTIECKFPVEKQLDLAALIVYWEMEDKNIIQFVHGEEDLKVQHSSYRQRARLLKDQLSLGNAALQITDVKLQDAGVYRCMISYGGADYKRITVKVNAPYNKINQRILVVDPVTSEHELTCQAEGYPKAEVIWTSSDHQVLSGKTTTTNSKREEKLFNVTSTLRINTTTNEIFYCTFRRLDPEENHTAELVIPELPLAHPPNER
Procedure: Homogenouse Time-Resolved Fluorescence (HTRF) binding assay was used to detect the binding ability of the compound of the present disclosure to PD-1/PD-L1.
The purchased kit (CisBio, #64CUS000C-1) contains reagents required for experiments such as PD-1, PD-L1, anti-tag1-Eu, Anti-tag2-XL665, Dilute Buffer, and Detection Buffer.
• 1. The compound was configured with 100% DMSO into 10 concentrations with a concentration gradient of 3 times. • 2. The DMSO solution of the compound was added to Dilute Buffer solution, and the mixture was mixed well and transferred to a 96-well plate. • 3. PD-L1 was diluted with Dilute Buffer solution and then added to the above 96-well plate. • 4. PD-1 was diluted with Dilute Buffer solution and then added to the above 96-well plate, and incubated at room temperature for 30 minutes. • 5. One part of anti-tag1-Eu and one part of Anti-tag2-XL665 were added to Detection Buffer solution, and the mixture was mixed well and transferred to the above 96-well plate. • 6. The mixture in the 96-well plate was incubated at room temperature for 1 to 24 hours. • 7. The HTRF values were read with Envision.
Cc1c(/C=C/c2cc(OCCOCCN3CCN(CC(=O)O)CCN(CC(=O)O)CCN(CC(=O)O)CC3)c(CN3CCCC[C@H]3C(=O)O)cc2C(F)(F)F)cccc1-c1ccccc1 [Compound 2] was tested, and the IC50 was 1.29 nM. Molecule Cc1c(/C=C/c2cc(OCCNC(=O)CN3CCN(CC(=O)O)CCN(CC(=O)O)CCN(CC(=O)O)CC3)c(CN3CCCC[C@H]3C(=O)O)cc2C(F)(F)F)cccc1-c1ccccc1 [Compound 3, (2S)-1-({4-[(1E)-2-(2-Methyl-3-phenylphenyl)vinyl]-5-(trifluoromethyl)-2-{[2-({2-[4,7,10-tris(carboxymethyl)-1,4,7,10-tetraazacyclododecan-1-yl]acetyl}amino)ethyl]oxy}phenyl}methyl)hexahydropyridine-2-carboxylic acid] has an IC50 of 3.16 nM. Molecule Cc1c(/C=C/c2cc(OCCCCNC(=O)CN3CCN(CC(=O)O)CCN(CC(=O)O)CCN(CC(=O)O)CC3)c(CN3CCCC[C@H]3C(=O)O)cc2C(F)(F)F)cccc1-c1ccccc1 [Compound 4, (2S)-1-({4-[(1E)-2-(2-Methyl-3-phenylphenyl)vinyl]-5-(trifluoromethyl)-2-{[4-({2-[4,7,10-tris(carboxymethyl)-1,4,7,10-tetraazacyclododecan-1-yl]acetyl}amino)butyl]oxy}phenyl}methyl)hexahydropyridine-2-carboxylic acid] has an IC50 of 0.888 nM. Cc1c(/C=C/c2cc(OCCNC(=O)C3CCC(CNC(=O)CN4CCN(CC(=O)O)CCN(CC(=O)O)CCN(CC(=O)O)CC4)CC3)c(CN3CCCC[C@H]3C(=O)O)cc2C(F)(F)F)cccc1-c1ccccc1 (some centres unmarked) [Compound 9] showed an IC50 of 1.07 nM. Work on Cc1ccc(CCCC(=O)NCCCC[C@H](NC(=O)CN2CCN(CC(=O)O)CCN(CC(=O)O)CCN(CC(=O)O)CC2)C(=O)NCCOc2cc(/C=C/c3cccc(-c4ccccc4)c3C)c(C(F)(F)F)cc2CN2CCCC[C@H]2C(=O)O)cc1 [Compound 10] yielded an IC50 of 169 nM. Cc1c(/C=C/c2cc(OCCCCCNC(=O)CN3CCN(CC(=O)O)CCN(CC(=O)O)CCN(CC(=O)O)CC3)c(CN3CCCC[C@H]3C(=O)O)cc2C(F)(F)F)cccc1-c1ccccc1 [Compound 16] showed an IC50 of 1.42 nM. Cc1c(/C=C/c2cc(OCCNC(=O)C3CCN(C(=O)CN4CCN(CC(=O)O)CCN(CC(=O)O)CCN(CC(=O)O)CC4)CC3)c(CN3CCCC[C@H]3C(=O)O)cc2C(F)(F)F)cccc1-c1ccccc1 [Compound 18] gave an IC50 of 0.901 nM. Molecule Cc1c(/C=C/c2cc(OCC3CCN(C(=O)CN4CCN(CC(=O)O)CCN(CC(=O)O)CCN(CC(=O)O)CC4)CC3)c(CN3CCCC[C@H]3C(=O)O)cc2C(F)(F)F)cccc1-c1ccccc1 [Compound 19] has an IC50 of 0.869 nM. Molecule Cc1ccc(CCCC(=O)NCCCC[C@H](NC(=O)CN2CCN(CC(=O)O)CCN(CC(=O)O)CCN(CC(=O)O)CC2)C(=O)NCC2CCC(C(=O)NCCOc3cc(/C=C/c4cccc(-c5ccccc5)c4C)c(C(F)(F)F)cc3CN3CCCC[C@H]3C(=O)O)CC2)cc1 (some centres unmarked) [Compound 21] has an IC50 of 3.74 nM. For Cc1c(/C=C/c2cc(OCCCCCCNC(=O)CN3CCN(CC(=O)O)CCN(CC(=O)O)CCN(CC(=O)O)CC3)c(CN3CCCC[C@H]3C(=O)O)cc2C(F)(F)F)cccc1-c1ccccc1 [Compound 23], the IC50 was 0.833 nM. Molecule Cc1ccc(CCCC(=O)NCCCC[C@H](NC(=O)CN2CCN(CC(=O)O)CCN(CC(=O)O)CCN(CC(=O)O)CC2)C(=O)NCCCCCCOc2cc(/C=C/c3cccc(-c4ccccc4)c3C)c(C(F)(F)F)cc2CN2CCCC[C@H]2C(=O)O)cc1 [Compound 25] has an IC50 of 16.2 nM. Cc1ccc(CCCC(=O)NCCCC[C@H](NC(=O)CN2CCN(CC(=O)O)CCN(CC(=O)O)CCN(CC(=O)O)CC2)C(=O)NCCOCCOc2cc(/C=C/c3cccc(-c4ccccc4)c3C)c(C(F)(F)F)cc2CN2CCCC[C@H]2C(=O)O)cc1 [Compound 30] showed an IC50 of 9.22 nM. Cc1c(/C=C/c2cc(OCCOCCNC(=O)CN3CCN(CC(=O)O)CCN(CC(=O)O)CCN(CC(=O)O)CC3)c(CN3CCCC[C@H]3C(=O)O)cc2C(F)(F)F)cccc1-c1ccccc1 [Compound 31] was tested, and the IC50 was 0.603 nM. With N#Cc1c(-c2ccccc2)ccnc1/C=C/c1cc(OCCCCCN2CCN(CC(=O)O)CCN(CC(=O)O)CC2)c(CN2CCCC[C@H]2C(=O)O)cc1C(F)(F)F [Compound 57] the IC50 was 4.83 nM.
